Tests used:
[1] = target: T1, human FGFR4 kinase (Homo sapiens, UniProt P22455); experiment: FGFR4 kinase assay (Kinase HotSpot, Reaction Biology Corp.); format: biochemical; conditions: for inhibition at 1 µM: fixed concentration 1 μM, mean of two independent experiments; for inhibition at 0.01 µM: 0.01 μM concentration, two independent experiments
T1 construct: purchased Reaction Biology Corporation (Malvern, PA, USA), contract assay service
Protocol: A FGFR4 kinase assay was performed at the Reaction Biology Corporation (Malvern, PA, USA) using a Kinase HotSpotSM assay platform (www.reactionbiology.com, last accessed at 19/10/2020). Briefly, human FGFR4 kinase (5–10 mU), peptide substrate, and poly[Glu:Tyr] (4:1) 0.2 mg/ml were prepared in a reaction buffer with a final volume of 25 µL. The compounds were delivered into the reaction, followed ∼20 min. later by the addition of a mixture of ATP and [γ-^33P-ATP] (specific activity approx. 500 cpm/pmol, concentration as required) to a final concentration of 10 µM. After incubation for 40 min. at 25 °C, the reaction was stopped by the addition of a 3% phosphoric acid solution. Then, the reaction was spotted onto a P30 filtermat, and unbound phosphate was removed by washing 3 times for 5 min in 75 mM phosphoric acid and once in methanol prior to drying and scintillation counting. […] IC50 values and curve fits were obtained using GraphPad Prism 5 software.

[2] = target: T2, FGFR1 (Homo sapiens, UniProt P11362); experiment: FGFR1 ADP-glow kinase assay; format: biochemical
T2 construct: purchased Promega, WI, USA
Protocol: (§1) FGFR1 ∼ 3 kinase assays were performed using the adenosine diphosphate (ADP)-glow kinase assay kit of FGFR1, FGFR2, and FGFR3 kinase enzyme systems (Promega, WI, USA) in accordance with the manufacturer’s instructions. […] The reaction was carried out at 25 °C for 1 h in a total volume of 25 µL. Subsequently, 25 µL of ADP-Glow reagent was added to the mixture, and then incubated for 40 min at 25 °C. After the addition of 50 µL of ADP detection reagents for 30 min at 25 °C, luminescence was measured using a Fluostar Omega microplate reader (BMG LABTECH GmbH, Ortenberg, Germany).

[3] = target: T3, FGFR2 (Homo sapiens, UniProt P21802); experiment: FGFR2 ADP-glow kinase assay; format: biochemical
T3 construct: purchased Promega, WI, USA
Protocol: as §1

[4] = target: T4, FGFR3 (Homo sapiens, UniProt P22607); experiment: FGFR3 ADP-glow kinase assay; format: biochemical
T4 construct: purchased Promega, WI, USA
Protocol: as §1

[5] = tested on: Hep3B cells; experiment: Cell proliferation assay (MTT), Hep3B; format: cell-based, human
Protocol: (§2) Human HCC cell lines, Hep3B and Huh7 were obtained from American Type Culture Collection (ATCC, Manassas, VA, USA). An H6c7 human normal pancreatic duct epithelial cell line was purchased from Kerafast (Boston, MA, USA). Hep3B and Huh7 cells were cultured in Dulbecco′s Modified Eagle′s Medium (DMEM) (Hyclone, Logan, UT, USA). The media were supplemented with 10% foetal bovine serum (FBS) (Gibco/ThermoFisher Scientific) and 1% penicillin/streptomycin (Gibco/ThermoFisher Scientific). H6c7 cells were maintained in a keratinocyte serum-free medium supplemented with a recombinant […] growth factor (rEGF) and bovine pituitary extract (Gibco/ThermoFisher Scientific). All the cells were incubated at 37 °C under a 5% CO2 atmosphere.
(§3) Cells were seeded at a density of 5000 cells/well in a 96-well plate. After overnight incubation, the cells were serum-starved using 1% FBS for 24 h. The next day, the cells were pre-treated with the different concentrations (0.1, 1, 3, 10, 30, 100 µM) of drugs for 1 h prior to the treatment with serum (10% FBS). After 48 h of incubation, 3–(4,5-dimethylthiazol-2-yl)-2,5-diphenyltetrazolium bromide (MTT) dye solution was added and incubated for 4 h. Next, DMSO was added, and after 30 min, the colour intensities were measured using a microplate reader (Versamax, Molecular Devices, Inc., USA) at 490 nm.

[6] = tested on: Huh7 cells; experiment: Cell proliferation assay (MTT), Huh7; format: cell-based, human
Protocol: as §2, §3

[7] = Cytotoxicity assay (MTT), H6c7; format: cell-based; conditions: human, H6c7 normal pancreatic duct epithelial cells, 48 h treatment, mean ± SEM of three independent experiments, read-out: IC50 on cell viability (cytotoxicity), H6c7
Protocol: as §2
The cytotoxicity of the compounds was assessed by measuring the cell viability decrease using the MTT staining method. Briefly, H6c7 cells were seeded in a 96-well plate (Falcon, USA) at a density of 4 × 10^4 cells per well in keratinocyte serum-free medium. After 24 h, Cells were incubated with different concentrations (0.1, 1, 3, 10, 30, and 100) µM of each compound for 48 h, and the cell viability was measured using MTT assay. Optical density was measured at 540 nm using a microplate reader (BMG LABTECH).

[8] = tested on: Hep3B-xenografted CAM tumour model; experiment: CAM (chick chorioallantoic membrane) tumour model implanted with Hep3B cells; format: in vivo
Protocol: Fertile chicken eggs were purchased from Byeolbichon Farm (Gyeongbuk, South Korea) and incubated at 37 °C and under 55% relative humidity. On the 9th day of egg incubation (post-fertilization), false air sac was generated on the relatively flat side of eggs by a negative pressure technique. A small window (1 cm^2) was created on the false air sac surface of the eggs by separating the shell and membrane beneath (technique) using a grinding wheel (Dremel, Racine, WI, USA). Next, Hep3B cells were loaded at a density of 1.5 × 10^6 cells/CAM with or without compound. After four days of drug treatment, the tumour weight, number of vessel branch points within the tumour region were analysed.

[9] = four days after Hep3B xenograft on CAM
[10] = number of new vessel branches on CAM, four days

T1 sequence (P22455 22-802): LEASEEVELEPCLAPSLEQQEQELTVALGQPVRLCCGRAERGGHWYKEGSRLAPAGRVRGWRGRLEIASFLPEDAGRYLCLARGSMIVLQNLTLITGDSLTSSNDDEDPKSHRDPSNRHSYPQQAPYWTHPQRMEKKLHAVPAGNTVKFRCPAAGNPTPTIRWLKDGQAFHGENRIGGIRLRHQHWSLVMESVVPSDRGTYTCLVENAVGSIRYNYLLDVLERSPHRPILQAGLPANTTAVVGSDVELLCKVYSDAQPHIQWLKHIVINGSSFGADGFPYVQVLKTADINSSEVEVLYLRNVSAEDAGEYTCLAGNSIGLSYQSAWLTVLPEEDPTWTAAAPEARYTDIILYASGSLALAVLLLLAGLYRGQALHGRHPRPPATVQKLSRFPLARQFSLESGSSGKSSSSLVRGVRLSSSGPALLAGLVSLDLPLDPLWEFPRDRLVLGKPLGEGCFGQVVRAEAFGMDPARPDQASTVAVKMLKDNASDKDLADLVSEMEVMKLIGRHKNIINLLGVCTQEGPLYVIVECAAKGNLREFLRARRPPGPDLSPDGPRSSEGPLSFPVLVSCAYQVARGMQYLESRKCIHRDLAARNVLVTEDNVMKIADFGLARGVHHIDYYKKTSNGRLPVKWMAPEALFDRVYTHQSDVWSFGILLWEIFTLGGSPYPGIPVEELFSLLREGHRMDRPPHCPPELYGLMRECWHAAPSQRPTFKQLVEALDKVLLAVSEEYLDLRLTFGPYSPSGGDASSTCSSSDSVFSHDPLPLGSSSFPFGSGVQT
T3 sequence (P21802 22-821): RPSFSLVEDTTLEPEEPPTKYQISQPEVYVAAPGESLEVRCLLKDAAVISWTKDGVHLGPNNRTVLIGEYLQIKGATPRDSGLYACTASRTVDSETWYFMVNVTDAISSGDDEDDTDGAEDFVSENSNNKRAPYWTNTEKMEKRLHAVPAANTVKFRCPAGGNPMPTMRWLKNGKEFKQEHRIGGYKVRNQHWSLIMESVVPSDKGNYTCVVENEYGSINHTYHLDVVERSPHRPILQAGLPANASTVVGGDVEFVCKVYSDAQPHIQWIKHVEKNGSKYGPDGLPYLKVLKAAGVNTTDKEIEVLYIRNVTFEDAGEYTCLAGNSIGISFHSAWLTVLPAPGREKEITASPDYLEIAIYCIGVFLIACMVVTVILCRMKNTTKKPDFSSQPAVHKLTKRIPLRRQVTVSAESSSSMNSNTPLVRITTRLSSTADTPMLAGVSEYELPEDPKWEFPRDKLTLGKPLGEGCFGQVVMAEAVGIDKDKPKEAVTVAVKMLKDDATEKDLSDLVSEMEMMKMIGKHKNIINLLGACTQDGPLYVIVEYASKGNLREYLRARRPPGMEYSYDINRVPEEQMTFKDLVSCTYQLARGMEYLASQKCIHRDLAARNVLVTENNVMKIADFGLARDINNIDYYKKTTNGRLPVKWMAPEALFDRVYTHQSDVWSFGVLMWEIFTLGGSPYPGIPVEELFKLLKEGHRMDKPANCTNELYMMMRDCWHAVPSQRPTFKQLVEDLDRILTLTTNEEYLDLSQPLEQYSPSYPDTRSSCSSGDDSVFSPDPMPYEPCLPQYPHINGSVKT
T2 sequence (P11362 22-822): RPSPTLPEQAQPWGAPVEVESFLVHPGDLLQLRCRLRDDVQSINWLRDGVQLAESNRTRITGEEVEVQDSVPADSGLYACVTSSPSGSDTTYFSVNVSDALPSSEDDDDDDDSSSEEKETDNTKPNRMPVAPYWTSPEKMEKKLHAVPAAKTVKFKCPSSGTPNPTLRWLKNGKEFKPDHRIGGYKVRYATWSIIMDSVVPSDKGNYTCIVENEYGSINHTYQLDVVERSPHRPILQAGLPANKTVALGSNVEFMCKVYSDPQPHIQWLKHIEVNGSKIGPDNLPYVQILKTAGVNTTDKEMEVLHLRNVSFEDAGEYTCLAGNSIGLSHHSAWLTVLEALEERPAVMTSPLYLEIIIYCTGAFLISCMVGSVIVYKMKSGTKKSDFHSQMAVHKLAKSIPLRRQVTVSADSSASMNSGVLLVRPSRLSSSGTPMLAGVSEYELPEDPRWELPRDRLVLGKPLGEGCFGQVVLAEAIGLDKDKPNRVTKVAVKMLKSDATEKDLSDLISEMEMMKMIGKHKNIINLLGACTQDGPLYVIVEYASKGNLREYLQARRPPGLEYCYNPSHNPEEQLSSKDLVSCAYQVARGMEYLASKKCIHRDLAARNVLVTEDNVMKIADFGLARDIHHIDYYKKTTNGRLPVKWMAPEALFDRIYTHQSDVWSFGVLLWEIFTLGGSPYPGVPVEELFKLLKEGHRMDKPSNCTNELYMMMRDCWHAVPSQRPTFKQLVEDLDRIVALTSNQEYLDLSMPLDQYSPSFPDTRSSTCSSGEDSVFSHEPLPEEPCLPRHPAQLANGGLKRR
T4 sequence (P22607 23-806): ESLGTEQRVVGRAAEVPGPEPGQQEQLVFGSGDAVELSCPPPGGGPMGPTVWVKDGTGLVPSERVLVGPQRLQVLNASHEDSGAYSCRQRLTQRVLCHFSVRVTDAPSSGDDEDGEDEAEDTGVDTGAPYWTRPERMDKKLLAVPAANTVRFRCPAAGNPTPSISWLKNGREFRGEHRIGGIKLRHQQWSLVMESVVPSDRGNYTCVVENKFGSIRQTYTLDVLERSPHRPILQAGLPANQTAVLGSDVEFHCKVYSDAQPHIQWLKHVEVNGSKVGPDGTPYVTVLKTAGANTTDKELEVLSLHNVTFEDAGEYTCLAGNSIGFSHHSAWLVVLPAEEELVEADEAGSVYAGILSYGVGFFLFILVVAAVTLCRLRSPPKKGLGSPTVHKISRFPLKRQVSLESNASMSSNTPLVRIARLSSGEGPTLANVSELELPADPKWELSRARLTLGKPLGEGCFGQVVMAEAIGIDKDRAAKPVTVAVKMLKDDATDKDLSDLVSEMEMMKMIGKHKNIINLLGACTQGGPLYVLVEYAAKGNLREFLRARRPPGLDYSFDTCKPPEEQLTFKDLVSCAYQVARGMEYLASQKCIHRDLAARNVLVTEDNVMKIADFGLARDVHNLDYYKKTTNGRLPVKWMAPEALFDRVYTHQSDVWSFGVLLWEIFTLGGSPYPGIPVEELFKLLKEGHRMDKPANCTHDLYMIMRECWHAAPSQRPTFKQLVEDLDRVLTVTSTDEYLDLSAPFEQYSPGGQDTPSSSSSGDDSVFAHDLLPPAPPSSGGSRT

## C=CC(=O)Nc1cc(F)cc(Cl)c1Nc1nc(C)c(OCc2c(F)c(OC)cc(OC)c2F)c(C)c1C [Compound 6M]
[1]
  inhibition at 1 µM: 9.9%

## C=CC(=O)Nc1cc(F)cc(Cl)c1Nc1nc(C)c(OCc2c(Cl)c(OC)cc(OC)c2Cl)c(C)c1C [Compound 6N]
[1]
  inhibition at 1 µM: 11.9%

## C=CC(=O)Nc1cc(F)cc(Cl)c1Nc1nc(C)c(OCc2c(F)c(OC)cc(OC)c2F)c(C)n1 [Compound 6O, N-(3-Chloro-2-((5-((2,6-difluoro-3,5-dimethoxybenzyl)oxy)-4,6-dimethylpyrimidin-2-yl)amino)-5-fluorophenyl)acrylamide]
[1]; 7 different concentrations, three independent experiments
  IC50: 0.0753 µM
[1]
  inhibition at 1 µM: 96.7%
[1]; from Table 1 ratios
  FGFR4 selectivity compared to BLU9931 (1): at least 8 times
[2]; ratio of FGFR1 to FGFR4 inhibitory activity
  Ratio against FGFR4 (FGFR1): > 663.8
[2]; three independent experiments
  IC50: > 50 µM
[3]; ratio of FGFR2 to FGFR4 inhibitory activity
  Ratio against FGFR4 (FGFR2): 471.1
[3]; three independent experiments
  IC50: 35.5 µM
[4]; ratio of FGFR3 to FGFR4 inhibitory activity
  Ratio against FGFR4 (FGFR3): > 398.3
[4]; three independent experiments
  IC50: > 30 µM
[5]; 48 h
  fold less potent than compound 1, Hep3B IC50: 5 fold
[5]; Homo sapiens, Hep3B, 48 h treatment, mean ± SEM of three independent experiments
  IC50: 4.5 µM
[6]; Homo sapiens, Huh-7, 48 h treatment, mean ± SEM of three independent experiments
  IC50: 12.6 ± 1.3 µM
[6]; Huh7 versus Hep3B, 48 h
  difference of anti-proliferative activity between Hep3B and Huh7: 2.8 fold
[7]
  IC50 at 48 h: 18 µM
[8]; [9]
  inhibitory effect on the tumour weight compared with compound 1: slightly weaker
  tumour growth: dose-dependently inhibited
[8]; [10]
  antiangiogenic effect compared with compound 1: slightly weaker
  tumour-induced angiogenesis: significantly blocked

## C=CC(=O)Nc1cc(F)cc(Cl)c1Nc1nc(C)c(OCc2c(Cl)c(OC)cc(OC)c2Cl)c(C)n1 [Compound 6P]
[1]
  inhibition at 1 µM: 12.8%

## C=CC(=O)Nc1cccc(OC)c1Nc1nc(C)c(OCc2c(F)c(OC)cc(OC)c2F)c(C)c1C [Compound 6Q]
[1]
  inhibition at 1 µM: 10.3%

## C=CC(=O)Nc1cccc(OC)c1Nc1nc(C)c(OCc2c(Cl)c(OC)cc(OC)c2Cl)c(C)c1C [Compound 6R]
[1]
  inhibition at 1 µM: 6.9%

## C=CC(=O)Nc1cccc(OC)c1Nc1nc(C)c(OCc2c(F)c(OC)cc(OC)c2F)c(C)n1 [Compound 6S]
[1]
  inhibition at 1 µM: 49.3%

## C=CC(=O)Nc1cccc(OC)c1Nc1nc(C)c(OCc2c(Cl)c(OC)cc(OC)c2Cl)c(C)n1 [Compound 6T]
[1]
  inhibition at 1 µM: 11%

## C=CC(=O)Nc1ccc(OC)cc1Nc1nc(C)c(OCc2c(F)c(OC)cc(OC)c2F)c(C)c1C [Compound 6U]
[1]
  inhibition at 1 µM: 10.1%

## C=CC(=O)Nc1ccc(OC)cc1Nc1nc(C)c(OCc2c(Cl)c(OC)cc(OC)c2Cl)c(C)c1C [Compound 6V]
[1]
  inhibition at 1 µM: 7.7%

## C=CC(=O)Nc1ccc(OC)cc1Nc1nc(C)c(OCc2c(F)c(OC)cc(OC)c2F)c(C)n1 [Compound 6W]
[1]
  inhibition at 1 µM: 12.2%

## C=CC(=O)Nc1ccc(OC)cc1Nc1nc(C)c(OCc2c(Cl)c(OC)cc(OC)c2Cl)c(C)n1 [Compound 6X]
[1]
  inhibition at 1 µM: 6.3%

## C=CC(=O)Nc1ccc(N2CCN(CC)CC2)cc1Nc1nc(C)c(OCc2c(F)c(OC)cc(OC)c2F)c(C)c1C [Compound 6Y]
[1]
  inhibition at 1 µM: 10.4%

## C=CC(=O)Nc1ccc(N2CCN(CC)CC2)cc1Nc1nc(C)c(OCc2c(Cl)c(OC)cc(OC)c2Cl)c(C)c1C [Compound 6Z]
[1]
  inhibition at 1 µM: 2.7%

## C=CC(=O)Nc1cccc(C)c1Nc1ccc(OCc2c(F)c(OC)cc(OC)c2F)cn1 [Compound 41, reference compound]
[1]
  inhibition at 0.01 µM: 91%

## C=CC(=O)Nc1cccc(C)c1Nc1ncc(OCc2c(F)c(OC)cc(OC)c2F)cn1 [Compound 42, reference compound]
[1]
  inhibition at 0.01 µM: 87.4%
